Results: patent publication US20260325540A1 (priority 2023, published 2026)

Columns and labels:
[1] = target: MERS-CoV 3CLpro (Middle East respiratory syndrome-related coronavirus, UniProt K9N638); test: biochemical; conditions: MERS IC50, 75 nM MERS-CoV 3CLpro, 6 μM peptide 1 substrate, 25° C., 1.5 hrs, pH 7.5
[2] = target: SARS-CoV-2 3CLpro (Severe acute respiratory syndrome coronavirus 2, UniProt P0DTD1); test: FRET based protease assay, SARS-CoV-2 3CL; type: biochemical, SARS-CoV-2 (strain BetaCoV/Wuhan/WIV04/2019)

Sequence of MERS-CoV 3CLpro (K9N638 3248-3553 limits assumed): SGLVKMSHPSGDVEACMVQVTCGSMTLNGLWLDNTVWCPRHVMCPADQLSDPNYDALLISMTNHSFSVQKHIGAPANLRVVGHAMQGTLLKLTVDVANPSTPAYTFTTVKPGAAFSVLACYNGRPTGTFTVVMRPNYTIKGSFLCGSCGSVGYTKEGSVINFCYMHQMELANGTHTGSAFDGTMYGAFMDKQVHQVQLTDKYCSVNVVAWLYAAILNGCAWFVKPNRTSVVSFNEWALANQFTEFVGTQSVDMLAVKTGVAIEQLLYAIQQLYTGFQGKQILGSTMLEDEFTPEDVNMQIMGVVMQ

Row | SMILES | IC50 [1] | IC50 [2]
1 | CC(C)(C)C(=O)N[C@H]1CC/C=C/[C@H]2CNC(=O)[C@H]2C[C@@H](C#N)NC(=O)[C@@H]2[C@@H]3[C@H](CN2C1=O)C3(C)C [Example 61] | < 100 nM | < 100 nM
2 | CC1(C)[C@@H]2[C@H]3C(=O)N[C@H](C#N)C[C@@H]4C(=O)NC[C@@H]4CCCC[C@H](NC(=O)C4CC(F)(F)C4)C(=O)N3C[C@@H]21 [Example 62] | < 100 nM | < 100 nM
3 | CC(C)(C)C(=O)N[C@H]1C/C=C/[C@H]2CNC(=O)[C@H]2C[C@@H](C#N)NC(=O)[C@@H]2[C@@H]3[C@H](CN2C1=O)C3(C)C [Example 63] | 100 to 1000 nM | < 100 nM
4 | CC(C)(C)C(=O)N[C@H]1C/C=C\[C@H]2CNC(=O)[C@H]2C[C@@H](C#N)NC(=O)[C@@H]2[C@@H]3[C@H](CN2C1=O)C3(C)C [Example 64] | > 20000 nM | > 20000 nM
5 | CC(C)(C)C(=O)N[C@H]1CCCC[C@H]2CCNC(=O)[C@@H]2C[C@@H](C#N)NC(=O)[C@@H]2[C@@H]3[C@H](CN2C1=O)C3(C)C [Example 65] | 100 to 1000 nM | < 100 nM
6 | CC(C)(C)C(=O)N[C@H]1CCC[C@H]2CCNC(=O)[C@@H]2C[C@@H](C#N)NC(=O)[C@@H]2[C@@H]3[C@H](CN2C1=O)C3(C)C [Example 66] | 100 to 1000 nM | < 100 nM
7 | CC(C)(C)C(=O)N[C@H]1CCCC[C@H]2CNC(=O)[C@@H]2C[C@@H](C#N)NC(=O)[C@@H]2[C@@H]3[C@H](CN2C1=O)C3(C)C [Example 67] | 100 to 1000 nM | 100 to 1000 nM
8 | CC1(C)[C@@H]2[C@H]3C(=O)N[C@H](C#N)C[C@@H]4C(=O)NC[C@@H]4CCCC[C@H](NC(=O)C4CCC(F)(F)CC4)C(=O)N3C[C@@H]21 [Example 68] | < 100 nM | < 100 nM
9 | CC(C)(C)C(=O)N[C@H]1CCCC[C@H]2CCNC(=O)[C@H]2C[C@@H](C#N)NC(=O)[C@@H]2[C@@H]3[C@H](CN2C1=O)C3(C)C [Example 69] | 100 to 1000 nM | < 100 nM
10 | CC(C)(C)C(=O)N[C@H]1CCCC[C@H]2CNC(=O)[C@H]2C[C@@H](C#N)NC(=O)[C@@H]2[C@H]3CCC[C@H]3CN2C1=O [Example 70] | 100 to 1000 nM | < 100 nM
11 | CC(C)(C)C(=O)N[C@H]1CCCC[C@H]2CNC(=O)[C@H]2C[C@@H](C#N)NC(=O)[C@@H]2CCCCN2C1=O [Example 71] | 1000 to 20000 nM | 1000 to 20000 nM
12 | CC(C)(C)OC(=O)N[C@H]1CCCC[C@H]2CNC(=O)[C@H]2C[C@@H](C#N)NC(=O)[C@@H]2[C@@H]3[C@H](CN2C1=O)C3(C)C [Example 72] | < 100 nM | < 100 nM
13 | CC(C)(C)CC(=O)N[C@H]1CCCC[C@H]2CNC(=O)[C@H]2C[C@@H](C#N)NC(=O)[C@@H]2[C@@H]3[C@H](CN2C1=O)C3(C)C [Example 73] | < 100 nM | < 100 nM
14 | CC(C)(C)C(=O)N[C@H]1CCCC[C@H]2CNC(=O)[C@H]2C[C@@H](C#N)NC(=O)[C@@H]2CCCN2C1=O [Example 74] | 1000 to 20000 nM | 1000 to 20000 nM
15 | CC1(C)[C@@H]2[C@H]3C(=O)N[C@H](C#N)C[C@@H]4C(=O)NC[C@@H]4CCCC[C@H](NC(=O)OC4CCCC4)C(=O)N3C[C@@H]21 [Example 75] | < 100 nM | < 100 nM
16 | CC1(C)[C@@H]2[C@H]3C(=O)N[C@H](C#N)C[C@@H]4C(=O)NC[C@@H]4CCCC[C@H](NC(=O)C4CCC4)C(=O)N3C[C@@H]21 [Example 76] | 100 to 1000 nM | < 100 nM
17 | CC1(C)[C@@H]2[C@H]3C(=O)N[C@H](C#N)C[C@@H]4C(=O)NC[C@@H]4CCCC[C@H](NC(=O)C4CCCCC4)C(=O)N3C[C@@H]21 [Example 77] | < 100 nM | < 100 nM
18 | CN1C(=O)[C@@H](NC(=O)C(C)(C)C)CCCC[C@H]2CNC(=O)[C@H]2C[C@@H](C#N)NC(=O)[C@@H]1CC(C)(C)C [Example 78] | 1000 to 20000 nM | < 100 nM
19 | CC(C)(C)OC(=O)N[C@H]1CCCC[C@H]2CNC(=O)[C@H]2C[C@@H](C#N)NC(=O)[C@@H]2[C@H]3CCC[C@H]3CN2C1=O [Example 79] | 100 to 1000 nM | < 100 nM
20 | CC(C)(C)C(=O)N[C@H]1CCCC[C@H]2CNC(=O)[C@H]2C[C@@H](C#N)NC(=O)[C@H](C2CCCC2)NC1=O [Example 80] | 100 to 1000 nM | 100 to 1000 nM
21 | CC1(C)[C@@H]2[C@H]3C(=O)N[C@H](C#N)C[C@@H]4C(=O)NC[C@@H]4CCCC[C@H](NC(=O)C4CC5(CCC5)C4)C(=O)N3C[C@@H]21 (stereo partly shown) [Example 81] | 100 to 1000 nM | < 100 nM
22 | CC1(C)[C@@H]2[C@H]3C(=O)N[C@H](C#N)C[C@@H]4C(=O)NC[C@@H]4CCCC[C@H](NC(=O)c4ccc(F)cc4)C(=O)N3C[C@@H]21 [Example 82] | < 100 nM | < 100 nM
23 | CC1(C)[C@@H]2[C@H]3C(=O)N[C@H](C#N)C[C@@H]4C(=O)NC[C@@H]4/C=C/CC[C@H](NC(=O)C4CC(F)(F)C4)C(=O)N3C[C@@H]21 [Example 83] | < 100 nM | < 100 nM
